Where two headings read alike, the source gives them in different places. Oligonucleotides are written 5' to 3', each unit as a sugar letter and its base; * is a phosphorothioate linkage, no mark a phosphodiester; rarer units and linkages stand in square brackets, end groups in braces. Plain capitals give the bases only. {P} = phosphorylation (indicated by P); d = 2'-deoxy (DNA); m = 2'-O-methyl; r = 2'-OH (RNA); f = 2'-fluoro
System: VEGFR2
Test: EC50 of VEGFR2 siRNA candidates before and after modification, knockdown in cells
Type: cell-based, human
Conditions: for EC50: 24 h, 24well; for knockdown effect of the modified sequence compared with unmodified: PANC-1 and MDA-MB-231 cells
Method: MDA-MB-231 and U87 cells were seeded in 24-well cell plates (1 × 10^5/well), and then siRNAs (21mer or 25mer or negative control) were transfected with commercial transfection reagent (lipo2000), and the siRNA transfection concentration was 100 nM. Meanwhile, untreated cells were set as blank control. Total RNA was extracted from cells 24 h after transfection. Reverse transcription was performed using the kit to obtain cDNA according to the manufacturer’s instructions. Relative levels of target gene VEGFR2 mRNA expression were determined by real-time PCR, normalized to the housekeeping gene β-actin. Gene knockdown effectiveness was expressed as a percentage of the blank control. […] VEGFR2-21-h1#, VEGFR2-21-h2#, VEGFR2-21-h5#, VEGFR2-21-h7#, VEGFR2-21-hm17#, VEGFR2-21-hm18#, VEGFR2-25-h3#, and VEGFR2- 25-h4# were selected and modified as indicated in Table 3 (SEQ ID Nos. 109-124).
The EC50 of candidate sequences before and after modification in different cells (MDA-MB-231, U87-MG and PANC-1) were compared. MDA-MB-231, PANC-1 and U87-MG cells were seeded in 24-well cell plates (1 × 10^5/well), and siRNA candidates (modified or unmodified) were transfected with multiple concentration gradients in different cells. Use the same procedure as the primary screen. Finally, the data were plotted using the software GraphPad Prism8 and EC50 values were calculated.

[1] = MD-MB-231 cells, read-out: EC50 (nM, 24 h, 24well) Breast cancer MD-MB-231
[2] = PANC-1 cells, read-out: EC50 (nM, 24 h, 24well) Pancreatic cancer PANC-1
[3] = U87-MG cells, read-out: EC50 (nM, 24 h, 24well) Brain cancer U87-MG

VEGFR2-21-h7#mod: Modified (2′F, 2′OME, phosphorylation) siRNA targeting VEGFR2; sense SEQ ID 138, antisense SEQ ID 146 (sense mGmCmUmGmAmCfAfUfGmUmAmCmGmGmUmCmUmAmUdTdT; antisense {P}-mAfUmAmGmAmCmCmGmUmAmCmAmUfGmUmCmAmGmCdTdT)
EC50 [1]: 51.4 nM | EC50 [2]: 384 nM | EC50 [3]: 170 nM

VEGFR2-25-h3#: siRNA targeting VEGFR2 mRNA; sense SEQ ID 43, antisense SEQ ID 86 (sense GACCAACAUGGAGUCGUGUACAUUA; antisense UAAUGUACACGACUCCAUGUUGGUC; RNA, backbone not given here)
EC50 [1]: 1.8 nM | EC50 [2]: 0.35 nM | EC50 [3]: 10.9 nM

VEGFR2-21-hm17#mod: Modified (2′F, 2′OME, phosphorylation) siRNA targeting VEGFR2; sense SEQ ID 135, antisense SEQ ID 143 (sense mGmGmAmCmUmGfGfCfUmUmUmGmGmCmCmCmAmAmUdTdT; antisense {P}-mAfUmUmGmGmGmCmCmAmAmAmGmCfCmAmGmUmCmCdTdT)
EC50 [1]: 0.32 nM | EC50 [2]: 0.25 nM | EC50 [3]: 312 nM

VEGFR2-21-hm17#: siRNA targeting VEGFR2 mRNA; sense SEQ ID 76, antisense SEQ ID 119 (sense GGACUGGCUUUGGCCCAAUTT; antisense AUUGGGCCAAAGCCAGUCCTT; sugars from the 5' end r19 d2, backbone not given here)
EC50 [1]: 1.04 nM | knockdown effect of the modified sequence compared with unmodified: better than that of unmodified | EC50 [2]: 2.09 nM | EC50 [3]: 16.6 nM

VEGFR2-25-h 4#mod: Modified (2′F, 2′OME, phosphorylation) siRNA targeting VEGFR2; sense SEQ ID 134, antisense SEQ ID 142 (sense mCmCmCmUmUmGmAmGmUmCmCmAfAfUfCmAmCmAmCmAmAmUmUmAmA; antisense {P}-mUfUmAmAmUmUmGmUmGmUmGmAmUfUmGmGmAmCmUmCmAmAmGmGmG)
EC50 [1]: 0.21 nM | EC50 [2]: 0.35 nM | EC50 [3]: 34.6 nM

VEGFR2-21-hm18#: siRNA targeting VEGFR2 mRNA; sense SEQ ID 77, antisense SEQ ID 120 (sense GGAAAAAACAAAACUGUAATT; antisense UUACAGUUUUGUUUUUUCCTT; sugars from the 5' end r19 d2, backbone not given here)
EC50 [1]: 3.26 nM | knockdown effect of the modified sequence compared with unmodified: better than that of unmodified | EC50 [2]: 3.81 nM | EC50 [3]: 3.17 nM

VEGFR2-21-hm18# mod: Modified (2′F, 2′OME, phosphorylation) siRNA targeting VEGFR2; sense SEQ ID 136, antisense SEQ ID 144 (sense mGmGmAmAmAmAfAfAfCmAmAmAmAmCmUmGmUmAmAdTdT; antisense {P}-mUfUmAmCmAmGmUmUmUmUmGmUmUfUmUmUmUmCmCdTdT)
EC50 [1]: 0.02 nM | EC50 [2]: 0.06 nM | EC50 [3]: 1.57 nM

VEGFR2-21-h1#mod: Modified (2′F, 2′OME, phosphorylation) siRNA targeting VEGFR2; sense SEQ ID 131, antisense SEQ ID 139 (sense mGmCmCmUmAmGfUfGfUmUmUmCmUmCmUmUmGmAmUdTdT; antisense {P}-mAfUmCmAmAmGmAmGmAmAmAmCmAfCmUmAmGmGmCdTdT)
EC50 [1]: 0.23 nM | EC50 [2]: 0.07 nM | EC50 [3]: 0.99 nM

VEGFR2-21-h5#mod: Modified (2′F, 2′OME, phosphorylation) siRNA targeting VEGFR2; sense SEQ ID 137, antisense SEQ ID 145 (sense mGmCmAmUmCmAfGfCfAmUmAmAmGmAmAmAmCmUmUdTdT; antisense {P}-mAfAmGmUmUmUmCmUmUmAmUmGmCfUmGmAmUmGmCdTdT)
EC50 [1]: 0.01 nM | EC50 [2]: 0.22 nM | EC50 [3]: 10.4 nM

VEGFR2-21-h2#: siRNA targeting VEGFR2 mRNA; sense SEQ ID 61, antisense SEQ ID 104 (sense GGUCCAUUUCAAAUCUCAATT; antisense UUGAGAUUUGAAAUGGACCTT; sugars from the 5' end r19 d2, backbone not given here)
EC50 [1]: 0.72 nM | knockdown effect of the modified sequence compared with unmodified: better than that of unmodified | EC50 [2]: 0.36 nM | EC50 [3]: 10.7 nM

VEGFR2-25-h3#mod: Modified (2′F, 2′OME, phosphorylation) siRNA targeting VEGFR2; sense SEQ ID 133, antisense SEQ ID 141 (sense mGmAmCmCmAmAmCmAmUmGmGmAfGfUfCmGmUmGmUmAmCmAmUmUmA; antisense {P}-mUfAmAmUmGmUmAmCmAmCmGmAmCfUmCmCmAmUmGmUmUmGmGmUmC)
EC50 [1]: 1.65 nM | EC50 [2]: 1.76 nM | EC50 [3]: 1090 nM

VEGFR2-25-h4#: siRNA targeting VEGFR2 mRNA; sense SEQ ID 44, antisense SEQ ID 87 (sense CCCUUGAGUCCAAUCACACAAUUAA; antisense UUAAUUGUGUGAUUGGACUCAAGGG; RNA, backbone not given here)
EC50 [1]: 0.38 nM | EC50 [2]: 0.13 nM | EC50 [3]: 5.39 nM

VEGFR2-21-h1#: siRNA targeting VEGFR2 mRNA; sense SEQ ID 60, antisense SEQ ID 103 (sense GCCUAGUGUUUCUCUUGAUTT; antisense AUCAAGAGAAACACUAGGCTT; sugars from the 5' end r19 d2, backbone not given here)
EC50 [1]: 0.2 nM | knockdown effect of the modified sequence compared with unmodified: better than that of unmodified | EC50 [2]: 0.92 nM | EC50 [3]: 1.25 nM

VEGFR2-21-h7#: siRNA targeting VEGFR2 mRNA; sense SEQ ID 66, antisense SEQ ID 109 (sense GCUGACAUGUACGGUCUAUTT; antisense AUAGACCGUACAUGUCAGCTT; sugars from the 5' end r19 d2, backbone not given here)
EC50 [1]: 1.72 nM | EC50 [2]: 3 nM | EC50 [3]: 49.5 nM

VEGFR2-21-h5#: siRNA targeting VEGFR2 mRNA; sense SEQ ID 64, antisense SEQ ID 107 (sense GCAUCAGCAUAAGAAACUUTT; antisense AAGUUUCUUAUGCUGAUGCTT; sugars from the 5' end r19 d2, backbone not given here)
EC50 [1]: 0.4 nM | knockdown effect of the modified sequence compared with unmodified: better than that of unmodified | EC50 [2]: 0.51 nM | EC50 [3]: 25.5 nM

VEGFR2-21-h2#mod: Modified (2′F, 2′OME, phosphorylation) siRNA targeting VEGFR2; sense SEQ ID 132, antisense SEQ ID 140 (sense mGmGmUmCmCmAfUfUfUmCmAmAmAmUmCmUmCmAmAdTdT; antisense {P}-mUfUmGmAmGmAmUmUmUmGmAmAmAfUmGmGmAmCmCdTdT)
EC50 [1]: 0.14 nM | EC50 [2]: 0.08 nM | EC50 [3]: 2.42 nM

— patent publication US20230323358A1, “COMPOSITION AND USE OF siRNAs AGAINST VEGFR2 AND TGF-BETA1 IN COMBINATION THERAPY FOR CANCER” (Sirnaomics, Inc., priority 2021, published 2023)
